Measured values taken from ChEMBL document CHEMBL6078677, “Discovery and optimization of tetrahydroacridine derivatives as a novel class of antibiotics against multidrug-resistant Gram-positive pathogens by targeting type I signal peptidase and disrupting bacterial membrane” (Eur J Med Chem, 2025).
≈ marks a conversion by molar mass, not a printed value. Calls of active or inactive are those of the source. No cut-off for these calls is given here.

Experiments:
[1] = system: Enterococcus faecalis; assay: Antimicrobial activity against Enterococcus faecalis JH2-2 assessed as inhibition of visible growth of bacteria incubated for 20 hrs by broth microdilution method; assay type: functional
[2] = system: Staphylococcus aureus; assay: Bactericidal activity against Staphylococcus aureus ATCC 29213 assessed as bacterial eradication at 4 times of MIC measured after 24 hrs by time-kill kinetics assay relative to control; assay type: functional
[3] = system: Enterococcus faecalis; assay: Antimicrobial activity against Enterococcus faecalis J2 harboring erythromycin-resistance rRNA methylase B and oxazolidinone phenicol transferable resistance gene assessed as inhibition of visible growth of bacteria incubated for 20 hrs by broth microdilution method; assay type: functional
[4] = system: Enterococcus faecalis; assay: microbe, parasite or virus in culture; assay type: functional; conditions: SF23-1, time 20 hrs
Description: Antimicrobial activity against Enterococcus faecalis SF23-1 harboring erythromycin-resistance rRNA methylase B, tetracycline efflux protein L and chloramphenicol-florfenicol resistance methylase assessed as inhibition of visible growth of bacteria incubated for 20 hrs by broth microdilution method

[5] = Hemolytic activity in Kunming mouse erythrocytes assessed as hemolysis at 8 times of MIC measured after 1 hrs by absorbance based assay relative to control; assay type: toxicity, cell-based, Erythrocyte; conditions: read-out: Activity
[6] = Hemolytic activity in Kunming mouse erythrocytes measured after 1 hrs by absorbance based assay; assay type: toxicity, cell-based, Erythrocyte
[7] = Cytotoxicity against human Caco-2 cells assessed as cell viability at 8 times of MIC incubated for 48 hrs by CCK8 assay (reference value: 99.54 %); assay type: toxicity, cell-based; conditions: read-out: Activity
[8] = system: Staphylococcus aureus; assay: Bactericidal activity against Staphylococcus aureus ATCC 29213 assessed as decrease in bacterial number measured within 12 hrs by time-kill kinetics assay; assay type: functional, organism-based
[9] = system: Streptococcus pyogenes; assay: Antimicrobial activity against Streptococcus pyogenes DL02 harboring erythromycin-resistance rRNA methylase B assessed as inhibition of visible growth of bacteria incubated for 20 hrs by broth microdilution method; assay type: functional
[10] = Cytotoxicity against human Caco-2 cells assessed as cell viability at 1 time of MIC incubated for 48 hrs by CCK8 assay (reference value: 99.54 %); assay type: toxicity, cell-based; conditions: read-out: Activity
[11] = Cytotoxicity against human Caco-2 cells assessed as cell viability at 2 times of MIC incubated for 48 hrs by CCK8 assay (reference value: 99.54 %); assay type: toxicity, cell-based; conditions: read-out: Activity
[12] = system: Salmonella enteritidis; assay: Antimicrobial activity against Salmonella enteritis S1 assessed as inhibition of visible growth of bacteria incubated for 20 hrs by broth microdilution method; assay type: functional, Salmonella enterica subsp. enterica serovar Enteritidis; conditions: Salmonella enterica
[13] = system: Staphylococcus aureus; assay: microbe, parasite or virus in culture; assay type: functional; conditions: M147-2, time 20 hrs
Description: Antimicrobial activity against Staphylococcus aureus M147-2 harboring erythromycin resistance rRNA methylase B, tetracycline efflux protein L and chloramphenicol-florfenicol resistance methylase assessed as inhibition of visible growth of bacteria incubated for 20 hrs by broth microdilution method

[14] = system: Staphylococcus aureus; assay: Antimicrobial activity against Staphylococcus aureus YZSA-15 harboring erythromycin resistance rRNA methylase C and vancomycin resistance locus assessed as inhibition of visible growth of bacteria incubated for 20 hrs by broth microdilution method; assay type: functional
[15] = system: Staphylococcus aureus; assay: microbe, parasite or virus in culture; assay type: functional; conditions: M92-1, time 20 hrs
Description: Antimicrobial activity against Staphylococcus aureus M92-1 harboring erythromycin resistance rRNA methylase B, tetracycline efflux protein L and oxazolidinone-phenicol transferable resistance gene assessed as inhibition of visible growth of bacteria incubated for 20 hrs by broth microdilution method

[16] = system: Klebsiella pneumoniae; assay: Antimicrobial activity against Klebsiella pneumoniae 9-1 assessed as inhibition of visible growth of bacteria incubated for 20 hrs by broth microdilution method; assay type: functional
[17] = system: Acinetobacter baumannii; assay: Antimicrobial activity against Acinetobacter baumannii AB11 assessed as inhibition of visible growth of bacteria incubated for 20 hrs by broth microdilution method; assay type: functional
[18] = system: Staphylococcus aureus; assay: Drug resistance, ratio of MIC for Staphylococcus aureus ATCC 29213 measured after 28 days to MIC for Staphylococcus aureus ATCC 29213 measured after 20 hrs; assay type: functional
[19] = Cytotoxicity against human HEp-2 cells assessed as cell viability at 1 time of MIC incubated for 48 hrs by CCK8 assay (reference value: 100 %); assay type: toxicity, cell-based; conditions: read-out: Activity
[20] = Cytotoxicity against human Caco-2 cells assessed as cell viability at 4 times of MIC incubated for 48 hrs by CCK8 assay (reference value: 99.54 %); assay type: toxicity, cell-based; conditions: read-out: Activity
[21] = system: Enterococcus faecium; assay: Antimicrobial activity against Enterococcus faecium MC38 harboring erythromycin resistance rRNA methylase B and oxazolidinone-phenicol transferable resistance gene assessed as inhibition of visible growth of bacteria incubated for 20 hrs by broth microdilution method; assay type: functional
[22] = system: Pseudomonas aeruginosa; assay: Antimicrobial activity against Pseudomonas aeruginosa PA14 assessed as inhibition of visible growth of bacteria incubated for 20 hrs by broth microdilution method; assay type: functional
[23] = system: Enterococcus faecium; assay: Antimicrobial activity against Enterococcus faecium QF31 harboring erythromycin resistance rRNA methylase B and chloramphenicol-florfenicol resistance methylase assessed as inhibition of visible growth of bacteria incubated for 20 hrs by broth microdilution method; assay type: functional
[24] = system: Enterococcus faecalis; assay: Antimicrobial activity against Enterococcus faecalis ES01 harboring erythromycin-resistance rRNA methylase B and vanB-type vancomycin-resistance locus assessed as inhibition of visible growth of bacteria incubated for 20 hrs by broth microdilution method; assay type: functional
[25] = system: Staphylococcus aureus; assay: Antimicrobial activity against Staphylococcus aureus ATCC 29213 assessed as inhibition of visible growth of bacteria incubated for 20 hrs by broth microdilution method; assay type: functional
[26] = Cytotoxicity against human HEp-2 cells assessed as cell viability at 4 times of MIC incubated for 48 hrs by CCK8 assay (reference value: 100 %); assay type: toxicity, cell-based; conditions: read-out: Activity
[27] = system: Staphylococcus aureus; assay: Antimicrobial activity against Staphylococcus aureus YZSA-24 harboring erythromycin resistance rRNA methylase C and methicillin resistance gene resistance locus assessed as inhibition of visible growth of bacteria incubated for 20 hrs by broth microdilution method; assay type: functional
[28] = system: Staphylococcus aureus; assay: Bactericidal activity against Staphylococcus aureus ATCC 29213 assessed as bacterial killing at 8 times of MIC measured within 12 hrs by time-kill kinetics assay; assay type: functional, organism-based
[29] = system: Streptococcus suis; assay: Antimicrobial activity against Streptococcus suis P1/7 assessed as inhibition of visible growth of bacteria incubated for 20 hrs by broth microdilution method; assay type: functional
[30] = system: Pseudomonas aeruginosa; assay: Antimicrobial activity against Pseudomonas aeruginosa PA01 assessed as inhibition of visible growth of bacteria incubated for 20 hrs by broth microdilution method; assay type: functional
[31] = Hemolytic activity in Kunming mouse erythrocytes assessed as hemolysis at 1 time of MIC measured after 1 hrs by absorbance based assay relative to control; assay type: toxicity, cell-based, Erythrocyte; conditions: read-out: Activity
[32] = Hemolytic activity in Kunming mouse erythrocytes assessed as hemolysis at 16 times of MIC measured after 1 hrs by absorbance based assay relative to control; assay type: toxicity, cell-based, Erythrocyte; conditions: read-out: Activity
[33] = Hemolytic activity in Kunming mouse erythrocytes assessed as hemolysis at 4 times of MIC measured after 1 hrs by absorbance based assay relative to control; assay type: toxicity, cell-based, Erythrocyte; conditions: read-out: Activity
[34] = Cytotoxicity against human HEp-2 cells assessed as cell viability at 2 times of MIC incubated for 48 hrs by CCK8 assay (reference value: 100 %); assay type: toxicity, cell-based; conditions: read-out: Activity
[35] = Cytotoxicity against human Caco-2 cells assessed as cell viability at 16 times of MIC incubated for 48 hrs by CCK8 assay (reference value: 99.54 %); assay type: toxicity, cell-based; conditions: read-out: Activity
[36] = Cytotoxicity against human HEp-2 cells assessed as cell viability at 8 times of MIC incubated for 48 hrs by CCK8 assay (reference value: 100 %); assay type: toxicity, cell-based; conditions: read-out: Activity
[37] = system: Enterococcus faecium; assay: Antimicrobial activity against Enterococcus faecium HFY01 assessed as inhibition of visible growth of bacteria incubated for 20 hrs by broth microdilution method; assay type: functional
[38] = system: Streptococcus suis; assay: microbe, parasite or virus in culture; assay type: functional; conditions: SH0918, time 20 hrs
Description: Antimicrobial activity against Streptococcus suis SH0918 harboring erythromycin-resistance rRNA methylase B, tetracycline efflux protein O and oxazolidinone phenicol transferable resistance gene assessed as inhibition of visible growth of bacteria incubated for 20 hrs by broth microdilution method

[39] = Cytotoxicity against human HEp-2 cells assessed as cell viability at 16 times of MIC incubated for 48 hrs by CCK8 assay (reference value: 100 %); assay type: toxicity, cell-based; conditions: read-out: Activity
[40] = system: Escherichia coli; assay: Antimicrobial activity against Escherichia coli ATCC 25922 assessed as inhibition of visible growth of bacteria incubated for 20 hrs by broth microdilution method; assay type: functional
[41] = system: Staphylococcus aureus; assay: Antimicrobial activity against Staphylococcus aureus YZSA-21 harboring erythromycin resistance rRNA methylase C assessed as inhibition of visible growth of bacteria incubated for 20 hrs by broth microdilution method; assay type: functional
[42] = Hemolytic activity in Kunming mouse erythrocytes assessed as hemolysis at 2 times of MIC measured after 1 hrs by absorbance based assay relative to control; assay type: toxicity, cell-based, Erythrocyte; conditions: read-out: Activity
[43] = system: Acinetobacter baumannii; assay: Antimicrobial activity against Acinetobacter baumannii 7979 assessed as inhibition of visible growth of bacteria incubated for 20 hrs by broth microdilution method; assay type: functional
[44] = system: Streptococcus agalactiae; assay: Antimicrobial activity against Streptococcus agalactiae DL03 harboring erythromycin-resistance rRNA methylase B assessed as inhibition of visible growth of bacteria incubated for 20 hrs by broth microdilution method; assay type: functional

COc1ccc2nc3c(c(C(=O)O)c2c1)CC(C)C/C3=C\c1cccc(-c2ccc(Cl)c(C(F)(F)F)c2)c1 (racemic)
MIC [1]: 4 mg/L (≈ 7.44 µM) | Activity [2]: 100% | MIC [3]: 8 mg/L (≈ 14.9 µM) | MIC [4]: 4 mg/L (≈ 7.44 µM) | hemolysis at 1 h, 8 times of MIC [5]: 22.3% | HC50 at 1 h [6]: 25.9 µg/mL | viability at 48 h, 8 times of MIC [7]: 36.6% | Activity [8]: Dose-dependent-effect | MIC [9]: 16 mg/L (≈ 29.7 µM) | viability at 48 h, 1 time of MIC [10]: 89.6% | viability at 48 h, 2 times of MIC [11]: 69.8% | MIC [12]: > 128 mg/L | MIC [13]: 2 mg/L (≈ 3.72 µM) | MIC [14]: 2 mg/L (≈ 3.72 µM) | MIC [15]: 2 mg/L (≈ 3.72 µM) | MIC [16]: > 128 mg/L | MIC [17]: > 128 mg/L | Ratio [18]: 4 | viability at 48 h, 1 time of MIC [19]: 89.8% | viability at 48 h, 4 times of MIC [20]: 51.9% | MIC [21]: 4 mg/L (≈ 7.44 µM) | MIC [22]: > 128 mg/L | MIC [23]: 4 mg/L (≈ 7.44 µM) | MIC [24]: 4 mg/L (≈ 7.44 µM) | MIC [25]: 2 mg/L (≈ 3.72 µM) | viability at 48 h, 4 times of MIC [26]: 66% | MIC [27]: 2 mg/L (≈ 3.72 µM) | Activity [28]: Active | MIC [29]: 8 mg/L (≈ 14.9 µM) | MIC [30]: > 128 mg/L | hemolysis at 1 h, 1 time of MIC [31]: 0% | hemolysis at 1 h, 16 times of MIC [32]: 63.5% | hemolysis at 1 h, 4 times of MIC [33]: 1.8% | viability at 48 h, 2 times of MIC [34]: 84.8% | viability at 48 h, 16 times of MIC [35]: 5.84% | viability at 48 h, 8 times of MIC [36]: 35.5% | MIC [37]: 4 mg/L (≈ 7.44 µM) | MIC [38]: 16 mg/L (≈ 29.7 µM) | viability at 48 h, 16 times of MIC [39]: 2.42% | MIC [40]: > 128 mg/L | MIC [41]: 2 mg/L (≈ 3.72 µM) | hemolysis at 1 h, 2 times of MIC [42]: 0% | MIC [43]: > 128 mg/L | MIC [44]: 32 mg/L (≈ 59.5 µM)
